Data as given in patent US10076533B2, “Acyclic nucleoside phosphonate diesters” (The Regents of the University of California, priority 2013, dated 2018).
Where two headings read alike, the source gives them in different places.

Tests used:
[1] = African green monkey, uninfected COS7 cells
[2] = human
[3] = test system: HIV-1LAI; assay: HIV antiviral assay in MT-2 cells, p24 reduction; details: for EC50: Human immunodeficiency virus 1, MT2, 96 h
[4] = Cytotoxicity in 2.2.15 cells by neutral red uptake; details: human
[5] = test system: AD169 strain of human cytomegalovirus; assay: Antiviral effect in HFF cells infected with human cytomegalovirus (AD169); details: for EC50: Human betaherpesvirus 5, AD169, HFF, 336 h; for Selectivity Index: human cytomegalovirus (AD169), HFF cells
[6] = test system: MAD-1 strain of JC virus; assay: Antiviral effect in JC virus (MAD-1) infected COS7 cells, qPCR; details: for EC50: JC polyomavirus, COS-7, 168 h; for Selectivity Index: JC virus (MAD-1), COS7 cells
[7] = test system: BK virus (Gardner strain); assay: Antiviral effect in HFF cells infected with BK virus (Gardner strain), qPCR; details: for Selectivity Index: BK virus (Gardner strain), HFF cells; for EC50: Betapolyomavirus hominis, HFF, 336 h
[8] = Cytotoxicity in MT-2 cells, flow cytometry cell counts and viability; type: cell-based, human; details: human; MT-2 cells, 72 hrs
Experimental: (§1) MT-2 cells were incubated with drug for 72 hrs and harvested. Flow count beads (Beckman Coulter, Miami, Fla.) were added to the cell suspension followed by propidium iodide staining and analysis using flow cytometer and the 50% cytotoxic concentration (CC50) was calculated from the cell counts and viability.

[9] = test system: MT-2 cells; assay: as above; type: cell-based, human; details: Homo sapiens, MT2; 72 hrs; read-out: CC50, 50% Cytotoxic concentration MT2 cells T cell leukemia
Experimental: as §1

[10] = Cytotoxicity in HFF cells in parallel to cytomegalovirus assay; details: human, […]
[11] = Cytotoxicity in HFF cells in parallel to HSV-1 assay; details: human, […]
[12] = test system: HPV-11; assay: HPV-11 origin replication in HEK 293 cells, qPCR; type: cell-based; details: for EC50: HEK293, HPV-11 origin replication in HEK 293 cells, 48 hr, qPCR; for Selectivity Index: HPV-11, HEK 293 cells
Experimental: (§2) An origin-containing plasmid was co-transfected with HPV-11 E1 and E2 protein expression vectors into HEK 293 cells. At 4 hr post-transfection, cells were treated with compound dilutions and the cells were incubated for 48 hr. Replication of the virus origin was detected with DpnI and exonuclease III to remove unreplicated input bacterial plasmid DNA. Remaining replicated DNA was quantified by qPCR. Toxicity was determined by trypan blue exclusion.

[13] = Toxicity in HEK 293 cells by trypan blue exclusion (HPV-11 example); type: cell-based; details: human
Experimental: as §2

[14] = Viability of PBMC by XTT reduction; details: human
[15] = test system: HPV-16; assay: HPV-16 origin replication in HEK 293 cells, qPCR; type: cell-based; details: for Selectivity Index: HPV-16, HEK 293 cells
Experimental: (§3) An origin-containing plasmid was co-transfected with HPV-16 E1 and E2 protein expression vectors into HEK 293 cells. At 4 hr post-transfection, cells were treated with compound dilutions and the cells were incubated for 48 hr. Replication of the virus origin was detected with DpnI and exonuclease III to remove unreplicated input bacterial plasmid DNA. Remaining replicated DNA was quantified by qPCR. Toxicity was determined by trypan blue exclusion.

[16] = test system: HIV-192US727; assay: Anti-HIV assay in human PBMC, supernatant reverse transcriptase activity; details: for Selectivity Index: HIV-192US727, human PBMC
[17] = Toxicity in HEK 293 cells by trypan blue exclusion (HPV-16 example); type: cell-based; details: human
Experimental: as §3

[18] = test system: Hepatitis B virus; assay: HBV replication in 2.2.15 cells, HBV DNA blot hybridization; details: for EC50: Hepatitis B virus, 168 h; for Selectivity Index: hepatitis B virus, 2.2.15 cells
[19] = Cytotoxicity in HFF cells in parallel to HSV-2 assay; details: human, […]
[20] = test system: HPV-18; assay: Antiviral effect in HPV-18 infected primary human keratinocyte rafts, qPCR; details: for Selectivity Index: HPV-18 keratinocyte rafts; for EC50: Homo sapiens, Keratinocyte
[21] = test system: Caski (HPV-16); assay: Antiproliferative activity, neutral red, Caski cervical cancer cells; details: for CC50: Homo sapiens, Ca-Ski, 96 h, read-out: Cytotoxic concentration 50% (CC50) Caski (HPV-16)
[22] = Antiproliferative activity, neutral red, normal human fibroblasts; details: normal human fibroblasts (HFF), monolayer culture
[23] = test system: Copenhagen strain of vaccinia virus; assay: microbe, parasite or virus in culture; type: cell-based; details: for EC50: Orthopoxvirus vaccinia, HFF, 168 h; for Selectivity Index: vaccinia virus (Copenhagen), HFF cells
[24] = Toxicity in primary human keratinocyte raft cultures by histology
[25] = in vitro; details: human
[26] = test system: Hela (HPV-18); assay: Antiproliferative activity, neutral red, Hela cervical cancer cells; details: Homo sapiens, 96 h, read-out: Cytotoxic concentration 50% (CC50) Hela (HPV-18)
[27] = Effect of oral compounds on body weight in Balb-c mice; type: in vivo
Experimental: Compounds were administered at the indicated doses by oral gavage daily for 5 days. Weights measured before and on day 6 after 5 doses.

[28] = test system: Human peripheral blood monocyte (PBMC); assay: Viability of PBMC by XTT reduction; details: human PBMC, XTT reduction
[29] = HEK293, HPV-16 origin replication in HEK 293 cells, 48 hr, qPCR, read-out: EC50
[30] = Human immunodeficiency virus 1, PBMC, 168 h

Compound	CC50 at 7 days [1]	CC50 at 14 days [2]	EC50 [3]	CC50 at 7 days [4]	EC50 [5]	Selectivity Index [5]	EC50 [6]	Selectivity Index [6]	Selectivity Index [7]	EC50 [7]	CC50 at 72 h [8]	CC50 at 14 days [10]	CC50 at 3 days [11]	EC50 [12]	Selectivity Index [15]	Selectivity Index [16]	EC50 [16, 30]	CC50 at 48 h [17]	EC50 [18]	Selectivity Index [18]	further results
CCCCCCCCCCCCCCCCCCOCCOP(=O)(COCCn1cnc2c(N)ncnc21)OCc1ccccc1 (stereo not shown) [Compound 2, benzyl octadecyloxyethyl 9-(2-phosphonomethoxyethyl)adenine]	10600 nM	7140 nM	< 0.01 nM	> 100000 nM	110 nM	166	> 4000 nM	<2.7	>238	< 30 nM	< 10 nM	18300 nM	16600 nM	270 nM	>10.1	>1100	< 10 nM	> 10000 nM	880 nM	>113	CC50 [9]: < 10 nM; Selectivity Index [12]: >130; CC50 at 48 h [13]: > 100000 nM; CC50 at 7 days ([14]; PHA-stimulated human PBMCs): 11000 nM; EC50 [15, 29]: 990 nM
CCCCCCCCCCCCCCCCCCOCCOP(=O)(CO[C@H](CO)Cn1ccc(=O)[nH]c1=O)OCc1ccccc1 (stereo partly drawn) [Compound 221, benzyl octadecyloxyethyl 9-(S)-[3-hydroxy-2-(phosphonomethoxy)propyl]uracil]																					CC50 at 3 days [19]: > 10000 nM
CCCCCCCCCCCCCCCCCCOCCOP(=O)(CO[C@H](CO)Cn1cnc2c(N)ncnc21)OCc1ccccc1 (stereo partly drawn) [Compound 218, benzyl octadecyloxyethyl 9-(S)-[3-hydroxy-2-(phosphonomethoxy)propyl] adenine]	10200 nM	2800 nM	130 ± 140 nM	> 100000 nM	< 30 nM	>250	> 4000 nM	<2.6	>93	< 30 nM	2300 ± 1600 nM	7490 nM	14500 nM	770 nM	>41.7	>23.0	< 10 nM	> 10000 nM	760 nM	>132	Selectivity Index [20]: >39; EC50 [20]: 250 nM; CC50 [21]: 55 nM; CC50 at 3 days [19]: 6910 nM; CC50 at 4 days [22]: 5200 nM; Selectivity Index [12]: >370; CC50 at 48 h [13]: > 100000 nM; CC50 at 7 days ([14]; PHA-stimulated human PBMCs): 230 nM; EC50 [15, 29]: 240 nM; EC50 [23]: < 30 nM; Selectivity Index [23]: >3330; CC50 [24]: > 10000 nM; CC50 [25]: > 100000 nM; CC50 [26]: 29 nM
CCCCCCCCCCCCCCCCCCOCCOP(=O)(CO[C@H](CO)Cn1ccc(N)nc1=O)OCc1ccccc1 (stereo partly drawn) [Compound 219, benzyl octadecyloxyethyl 1-(S)-[(3-hydroxy-2-phosphonomethoxy)propyl]cytosine]	12800 nM	6540 nM	2700 ± 2100 nM	> 100000 nM	< 30 nM	>2807	> 4000 nM	<3.2	>218	< 30 nM	18000 ± 3600 nM	84200 nM	19300 nM	2040 nM	>4.48	>28.7	< 100 nM	> 10000 nM	450 nM	>223	Selectivity Index [20]: >9.4; EC50 [20]: 1060 nM; CC50 [21]: 2000 nM; fold more effective in reducing viable cell number in the cervical cancer lines than in normal, non-transformed human fibroblasts ([21]; cervical cancer lines (Caski, Hela) vs HFF): 23.6 fold; CC50 at 3 days [19]: 13100 nM; CC50 at 4 days [22]: 52000 nM; Selectivity Index ([3]; CC50/EC50, MT-2 cells): 6.7; body weight Day 6 ([27]; 20 mg/kg/day oral gavage daily for 5 days): 19.27 ± 1.32 (6); body weight Day 0 ([27]; 20 mg/kg/day oral gavage, before dosing): 19.03 ± 1.16 (6); Selectivity Index [12]: >4.9; CC50 at 48 h [13]: > 10000 nM; CC50 at 7 days ([14]; PHA-stimulated human PBMCs): 2870 nM; EC50 [15, 29]: 2230 nM; EC50 [23]: 90 nM; Selectivity Index [23]: >1110; CC50 [24]: > 10000 nM; CC50 [25]: > 100000 nM; CC50 [26]: 2200 nM
CCCCCCCCCCCCCCCCOCCCOP(=O)(COCCn1cnc2c(=O)[nH]c(N)nc21)Oc1ccccc1 (stereo not shown) [Compound 25, phenyl hexadecyloxypropyl 9-(2-phosphonomethoxyethyl)guanine]																					CC50 [28]: 250 nM; EC50 ([16]; HIV-192US727 infected human PBMC, 7 days, supernatant reverse transcriptase activity): < 2 nM
CCCCCCCCCCCCCCCCCCOCCOP(=O)(COCCn1cnc2c(=O)[nH]c(N)nc21)Oc1ccccc1 (stereo not shown) [Compound 19, phenyl octadecyloxyethyl 9-(2-phosphonomethoxyethyl)guanine]				> 100000 nM											>1.9	>9.0	< 3 nM	> 10000 nM	43000 nM	>2.33	CC50 at 7 days [14]: 18 nM; EC50 ([15]; HEK293, 48 h): 5270 nM
